Laboratory results published in ChEMBL document CHEMBL6134789, “Asymmetric imidazole-4,5-dicarboxamide derivatives as SARS-CoV-2 main protease inhibitors: design, synthesis and biological evaluation” (RSC Med Chem, 2024).

How the values were obtained:
[1] = target: Replicase polyprotein 1ab (Severe acute respiratory syndrome coronavirus 2) (UniProt P0DTD1); assay: Inhibition of recombinant SARS-CoV-2 main protease at 1 uM using Dabcyl-KTSAVLQSGFRKM{Glu(Edans)} as substrate preincubated for 10 mins followed by substrate addition and measured at 60 secs interval for 30 mins by fluorogenic assay relative to control; conditions: time 40.0 min
16HBE14o- = assay: Cytotoxicity against human 16HBE14o- cells assessed as reduction in cell viability at 100 uM measured after 24 hrs by MTT assay; type: toxicity, cell-based
[2] = target: T1, Replicase polyprotein 1ab (Severe acute respiratory syndrome coronavirus 2, UniProt P0DTD1); assay: Inhibition of recombinant SARS-CoV-2 main protease using Dabcyl-KTSAVLQSGFRKM{Glu(Edans)} as substrate preincubated for 10 mins followed by substrate addition and measured at 60 secs interval for 30 mins by fluorogenic assay
[3] = target: T1, Replicase polyprotein 1ab; assay: Competitive inhibition of recombinant SARS-CoV-2 main protease using varying levels of Dabcyl-KTSAVLQSGFRKM{Glu(Edans)} as substrate by Lineweaver-Burk plot analysis

Compound | inhibition [1] | Activity (16HBE14o-) | IC50 [2] | Ki [3]
O=c1c2ccccc2[se]n1-c1ccccc1 | 100% | – | – | –
O=C(Nc1ccc(Cl)c(Cl)c1)c1[nH]cnc1C(=O)N1CCOCC1 | 33% | Non-toxic | 44.6 µM | –
CC(C)c1nc(CN(C)C(=O)N[C@H](C(=O)N[C@@H](Cc2ccccc2)C[C@H](O)[C@H](Cc2ccccc2)NC(=O)OCc2cncs2)C(C)C)cs1 | 24% | – | – | –
O=C(Nc1cc(Cl)c(Cl)cc1Cl)c1[nH]cnc1C(=O)N1CCOCC1 | 16% | – | – | –
O=C(Nc1ccc(Cl)cc1)c1[nH]cnc1C(=O)N1CCOCC1 | 3% | – | – | –
O=C(Nc1cc(Cl)ccc1Cl)c1[nH]cnc1C(=O)N1CCOCC1 | 18% | – | – | –
Cc1nc(C(=O)N2CCOCC2)c(C(=O)Nc2ccc(Cl)cc2)[nH]1 | 38% | Non-toxic | 4.79 µM | 15 µM
Cc1cccc(C)c1OCC(=O)N[C@@H](Cc1ccccc1)[C@@H](O)C[C@H](Cc1ccccc1)NC(=O)[C@H](C(C)C)N1CCCNC1=O | 33% | – | – | –
Cc1nc(C(=O)N2CCOCC2)c(C(=O)Nc2cc(Cl)c(Cl)cc2Cl)[nH]1 | 39% | Non-toxic | 13.3 µM | –
Cc1nc(C(=O)N2CCOCC2)c(C(=O)Nc2ccc(Cl)c(Cl)c2)[nH]1 | 33% | – | 22.9 µM | –
Cc1nc(C(=O)N2CCOCC2)c(C(=O)Nc2cc(Cl)ccc2Cl)[nH]1 | 38% | Non-toxic | 8.43 µM | –
O=C(Nc1ccccc1)c1[nH]cnc1C(=O)N1CCOCC1 | 15% | – | – | –
Cc1nc(C(=O)N2CCOCC2)c(C(=O)Nc2ccccc2)[nH]1 | 24% | Non-toxic | – | –
